“And” between values parts separate entries of the source, which are not always exact repeats. Equal entries are not always repeated. Where two headings read alike, the source gives them in different places.
What was measured:
[1] = target: T1, AHR (Homo sapiens, UniProt P35869); assay: In vitro assay 1: antagonism in human cell line (AHR transactivation, firefly luciferase reporter, kynurenic acid prestimulated); type: cell-based; conditions: AHR Antagonism Human IC50 [M]
T1 construct: U87 MG glioblastoma cells (ATCC #HTB-14) endogenously expressing AHR; endogenous in cells; host or cells: U87 MG glioblastoma cells (ATCC #HTB-14)
T1 sequence (P35869 11-848): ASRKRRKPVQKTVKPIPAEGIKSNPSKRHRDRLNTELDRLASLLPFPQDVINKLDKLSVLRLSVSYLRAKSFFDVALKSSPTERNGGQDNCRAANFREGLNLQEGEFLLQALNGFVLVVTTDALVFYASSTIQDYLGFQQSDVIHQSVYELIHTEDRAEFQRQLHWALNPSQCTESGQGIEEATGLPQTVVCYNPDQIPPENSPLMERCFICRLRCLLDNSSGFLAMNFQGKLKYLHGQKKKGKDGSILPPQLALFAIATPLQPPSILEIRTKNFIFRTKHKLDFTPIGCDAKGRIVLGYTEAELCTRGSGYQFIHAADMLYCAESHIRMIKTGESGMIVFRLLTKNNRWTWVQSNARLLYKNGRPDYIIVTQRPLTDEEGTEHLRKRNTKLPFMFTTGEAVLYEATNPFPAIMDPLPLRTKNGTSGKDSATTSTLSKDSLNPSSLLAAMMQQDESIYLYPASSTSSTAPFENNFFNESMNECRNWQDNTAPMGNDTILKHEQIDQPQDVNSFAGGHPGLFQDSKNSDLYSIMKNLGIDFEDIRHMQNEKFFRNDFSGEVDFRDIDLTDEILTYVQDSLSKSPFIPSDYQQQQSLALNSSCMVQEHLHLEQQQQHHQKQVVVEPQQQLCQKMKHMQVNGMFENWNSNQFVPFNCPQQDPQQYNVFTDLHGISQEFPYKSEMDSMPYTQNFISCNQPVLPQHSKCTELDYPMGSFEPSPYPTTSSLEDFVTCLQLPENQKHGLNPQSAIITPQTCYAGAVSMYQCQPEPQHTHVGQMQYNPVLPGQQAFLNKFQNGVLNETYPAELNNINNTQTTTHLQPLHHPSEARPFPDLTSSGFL
Experimental: Examples were tested in selected biological assays one or more times. When tested more than once, data are reported as either average values or as median values, wherein • the average value, also referred to as the arithmetic mean value, represents the sum of the values obtained divided by the number of times tested, and • the median value represents the middle number of the group of values when ranked in ascending or descending order. If the number of values in the data set is odd, the median is the middle value. If the number of values in the data set is even, the median is the arithmetic mean of the two middle values.
Transactivation assays were carried out in U87 MG glioblastoma cells (ATCC #HTB-14) endogenously expressing AHR. In addition the cells were stably transfected with an AHR inducible firefly luciferase reporter gene construct that carried AHR-binding sites (DRE) in its promoter and a renilla reporter gene construct with constitutively active promoter. Kynurenic acid is an endogenous AHR activating ligand and was used to prestimulate test cells prior to testing the antagonistic properties of compounds.
As positive inhibition control cells supplemented with 150 μM kynurenic acid were incubated in presence of 5 μM Staurosporin. Normalization was done by positive and negative controls.
Firefly luciferase and Renilla activity was determined by the DualGlo Luciferase Assay System (Promega, #2920). Renilla activity was used to assess toxic effects of compounds.

[2] = target: T2, AHR (Mus musculus, UniProt P30561); assay: In vitro assay 3: antagonism in mouse cell line (AHR transactivation, firefly luciferase reporter, kynurenic acid prestimulated); type: cell-based
T2 sequence (P30561 1-848 P471L/N533S/M589L): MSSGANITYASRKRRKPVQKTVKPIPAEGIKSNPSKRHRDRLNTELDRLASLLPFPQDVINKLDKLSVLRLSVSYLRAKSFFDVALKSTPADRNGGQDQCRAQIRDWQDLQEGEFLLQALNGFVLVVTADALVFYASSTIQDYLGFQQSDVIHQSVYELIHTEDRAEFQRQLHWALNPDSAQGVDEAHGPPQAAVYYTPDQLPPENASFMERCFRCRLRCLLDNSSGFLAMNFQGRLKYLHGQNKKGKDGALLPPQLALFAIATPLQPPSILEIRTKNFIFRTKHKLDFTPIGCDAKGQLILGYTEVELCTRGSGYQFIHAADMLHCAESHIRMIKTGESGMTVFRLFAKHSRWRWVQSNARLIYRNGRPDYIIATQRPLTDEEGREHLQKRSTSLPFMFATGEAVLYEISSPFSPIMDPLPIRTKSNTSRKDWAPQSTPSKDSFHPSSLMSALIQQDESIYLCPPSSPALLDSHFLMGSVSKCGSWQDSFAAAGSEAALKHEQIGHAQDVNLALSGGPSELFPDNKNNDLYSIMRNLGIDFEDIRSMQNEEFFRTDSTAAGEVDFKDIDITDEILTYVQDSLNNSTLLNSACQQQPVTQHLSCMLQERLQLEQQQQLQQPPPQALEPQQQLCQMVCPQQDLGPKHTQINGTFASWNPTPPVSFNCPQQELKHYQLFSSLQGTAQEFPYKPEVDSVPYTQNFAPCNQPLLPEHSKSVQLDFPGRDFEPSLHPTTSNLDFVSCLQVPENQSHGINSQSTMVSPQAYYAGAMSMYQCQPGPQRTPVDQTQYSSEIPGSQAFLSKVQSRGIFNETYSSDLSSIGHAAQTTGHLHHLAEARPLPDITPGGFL
How it was run: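 Kynurenic acid-prestimulated mouse reporter cells; stable AHR-inducible firefly luc construct with DRE sites in promoter. No-agonist wells = positive inhibition ctrl. Luminescence normalized to pos/neg ctrls; n>1 reported as mean or median.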

[3] = mouse Hepa 1c1c7 cells, 200 μM kynurenic acid, 20 hours, read-out: AHR Antagonism Mouse IC50

| IC50 [1] | IC50 [2, 3] | SMILES | IC50 ([2]; read-out: AHR Antagonism Mouse IC50, mouse Hepa 1c1c7 cells, 200 μM kynurenic acid, 20 hours) [nM] |
| --- | --- | --- | --- |
| 1.11e-06 M | 2220 nM | Cn1cc(-c2nc3c4ccccc4nc(NC4CCNC4=O)n3n2)cn1 (single isomer, unassigned) [Example 18, 3-{[2-(1-methyl-1H-pyrazol-4-yl)[1,2,4]triazolo[1,5-c]quinazolin-5-yl]amino}pyrrolidin-2-one] |  |
| 1.24e-06 M | 2210 nM | Cn1cc(-c2nc3c4ccccc4nc(NC4CCCNC4=O)n3n2)cn1 (single isomer, unassigned) [Example 20, 3-{[2-(1-methyl-1H-pyrazol-4-yl)[1,2,4]triazolo[1,5-c]quinazolin-5-yl]amino}piperidin-2-one] |  |
| 1.29e-05 M | > 20000 nM and 19700 nM | Cn1cc(-c2nc3c4ccccc4nc(NC4CCCNC4=O)n3n2)cn1 (single isomer, unassigned) [Example 21, 3-{[2-(1-methyl-1H-pyrazol-4-yl)[1,2,4]triazolo[1,5-c]quinazolin-5-yl]amino}piperidin-2-one] |  |
| > 2e-05 M and 1.65e-05 M | 3380 nM | Cn1cc(-c2nc3c4ccccc4nc(NC4CNCCNC4=O)n3n2)cn1 (single isomer, unassigned) [Example 23, 6-{[2-(1-methyl-1H-pyrazol-4-yl)[1,2,4]triazolo[1,5-c]quinazolin-5-yl]amino}-1,4-diazepan-5-one] |  |
| 2.93e-08 M | 5.25 nM | Cc1ccccc1-c1nc2c3ccccc3nc(NC3CNCCNC3=O)n2n1 (single isomer, unassigned) [Example 46, 6-{[2-(2-methylphenyl)[1,2,4]triazolo[1,5-c]quinazolin-5-yl]amino}-1,4-diazepan-5-one] |  |
| 8.5e-08 M | 26.1 nM | Cc1ccccc1-c1nc2c3ccccc3nc(NC3CCCNC3=O)n2n1 (single isomer, unassigned) [Example 49, 3-{[2-(2-methylphenyl)[1,2,4]triazolo[1,5-c]quinazolin-5-yl]amino}piperidin-2-one] |  |
| 5.1e-09 M | 5.66 nM | COc1cccc(-c2nc3c4ccccc4nc(N[C@@H](C)C(N)=O)n3n2)c1 (single isomer, unassigned) [Example 86, N^2-[2-(3-methoxyphenyl)[1,2,4]triazolo[1,5-c]quinazolin-5-yl]alaninamide] |  |
| 2.75e-06 M | 73.3 nM | COc1cccc(-c2nc3c4ccccc4nc(NC4CNCCNC4=O)n3n2)c1 (single isomer, unassigned) [Example 116, 6-{[2-(3-methoxyphenyl)[1,2,4]triazolo[1,5-c]quinazolin-5-yl]amino}-1,4-diazepan-5-one] |  |
| 9.04e-08 M | 76.5 nM | COc1cccc(-c2nc3c4ccccc4nc(NC4CNCCNC4=O)n3n2)c1 (single isomer, unassigned) [Example 117, 6-{[2-(3-methoxyphenyl)[1,2,4]triazolo[1,5-c]quinazolin-5-yl]amino}-1,4-diazepan-5-one] |  |

More lines, now with the values behind:

| SMILES | IC50 [1] | IC50 [2, 3] | IC50 ([2]; read-out: AHR Antagonism Mouse IC50, mouse Hepa 1c1c7 cells, 200 μM kynurenic acid, 20 hours) [nM] |
| --- | --- | --- | --- |
| Cn1cc(-c2nc3c4ccccc4nc(NC4CNCCNC4=O)n3n2)cn1 (racemic) [Example 22, 6-{[2-(1-methyl-1H-pyrazol-4-yl)[1,2,4]triazolo[1,5-c]quinazolin-5-yl]amino}-1,4-diazepan-5-one] | 5.33e-06 M | 2030 nM |  |
| CCCC[C@H](Nc1nc2ccccc2c2nc(-c3cccc(OC(F)(F)F)c3)nn12)C(N)=O (racemic) [Example 322, N^2-{2-[3-(trifluoromethoxy)phenyl][1,2,4]triazolo[1,5-c]quinazolin-5-yl}-norleucinamide] | 6.42e-08 M |  | 35.7 |
| Cn1cc(-c2nc3c4cccc(C(F)(F)F)c4nc(NC4C(=O)NCC4(C)C)n3n2)cn1 (racemic) [Example 728, (+/−)-4,4-dimethyl-3-{[2-(1-methyl-1H-pyrazol-4-yl)-7-(trifluoromethyl)[1,2,4]triazolo[1,5-c]quinazolin-5-yl]amino}pyrrolidin-2-one] | > 2e-05 M | 446 nM |  |
| COc1ccc(-c2nc3c4ccccc4nc(NC4CNCCNC4=O)n3n2)cc1 (single isomer, unassigned) [Example 35, 6-{[2-(4-methoxyphenyl)[1,2,4]triazolo[1,5-c]quinazolin-5-yl]amino}-1,4-diazepan-5-one] | 1.55e-06 M | 60.4 nM |  |
| COc1ccc(-c2nc3c4ccccc4nc(NC4CNCCNC4=O)n3n2)cc1 (single isomer, unassigned) [Example 36, 6-{[2-(4-methoxyphenyl)[1,2,4]triazolo[1,5-c]quinazolin-5-yl]amino}-1,4-diazepan-5-one] | 8.01e-09 M | 29.4 nM |  |
| COc1ccc(-c2nc3c4ccccc4nc(NC4CCCNC4=O)n3n2)cc1 (single isomer, unassigned) [Example 38, 3-{[2-(4-methoxyphenyl)[1,2,4]triazolo[1,5-c]quinazolin-5-yl]amino}piperidin-2-one] | 1.94e-08 M | 69.8 nM |  |
| Cc1ccccc1-c1nc2c3ccccc3nc(NC3CNCCNC3=O)n2n1 (single isomer, unassigned) [Example 47, 6-{[2-(2-methylphenyl)[1,2,4]triazolo[1,5-c]quinazolin-5-yl]amino}-1,4-diazepan-5-one] | 1.86e-08 M | 27.9 nM |  |
| Cc1ccccc1-c1nc2c3ccccc3nc(NC3CCCNC3=O)n2n1 (single isomer, unassigned) [Example 48, 3-{[2-(2-methylphenyl)[1,2,4]triazolo[1,5-c]quinazolin-5-yl]amino}piperidin-2-one] | 3.2e-08 M | 62 nM |  |
| Cc1ccccc1-c1nc2c3ccccc3nc(NC3CCNC3=O)n2n1 (single isomer, unassigned) [Example 50, 3-{[2-(2-methylphenyl)[1,2,4]triazolo[1,5-c]quinazolin-5-yl]amino}pyrrolidin-2-one] | 1.06e-08 M | 20.4 nM |  |
| Cc1ccccc1-c1nc2c3ccccc3nc(NC3CCNC3=O)n2n1 (single isomer, unassigned) [Example 51, 3-{[2-(2-methylphenyl)[1,2,4]triazolo[1,5-c]quinazolin-5-yl]amino}pyrrolidin-2-one] | 3.09e-08 M | 131 nM |  |
| COc1cccc(-c2nc3c4ccccc4nc(NC4CCCNC4=O)n3n2)c1 (single isomer, unassigned) [Example 118, 3-{[2-(3-methoxyphenyl)[1,2,4]triazolo[1,5-c]quinazolin-5-yl]amino}piperidin-2-one] | 6.43e-08 M | 40.2 nM |  |

Reference: patent publication US20230113037A1 (Bayer Aktiengesellschaft, priority 2019, published 2023)
